Laboratory results reported in patent US8835115B2, “ABCB1 genotyping to predict microtubule-stabilizing-agent-induced toxicity” (The United States of America as represented by the …, priority 2006, dated 2014).
Marks after values point to notes of the source that are not given here. One block for each compound: values may come before it.

Columns and labels:
[1] = tested on: men with androgen-independent prostate cancer; assay: Clinical grade of neutropenia in docetaxel-treated patients by ABCB1 genotype; assay type: in vivo, human
Protocol: (§1) ABCB1 genotypes were evaluated in patients from a trial involving 73 men with androgen-independent prostate cancer that were treated with either docetaxel alone or docetaxel in combination with thalidomide. Patients were administered docetaxel intravenously (30 mg/m2) over 1 hour every week for 3 consecutive weeks (n=23). Some patients additionally received 200 mg of thalidomide orally each day (n=50). Toxicity was defined by Cancer Therapy Evaluation Program/National Cancer Institute Common Toxicity Criteria (version 2.0) and patients were evaluated for symptoms of toxicity weekly.

[2] = tested on: men with androgen-independent prostate cancer; assay: Docetaxel-induced peripheral neuropathy by ABCB1 2677 genotype; assay type: in vivo, human; conditions: docetaxel 30 mg/m2 iv weekly for 3 consecutive weeks
Protocol: as §1

[3] = tested on: subjects with locally advanced or metastatic cancer; conditions: both, human, in vivo
Protocol: (§2) Twenty-six subjects were examined. There were 14 male subjects and 12 female subjects with a median age of 59.5 years (range: 42-72). The subjects were treated with weekly one- or three-hour paclitaxel infusions. All subjects had histologically proven, locally advanced or metastatic cancer, for which paclitaxel as monotherapy was a therapeutic option.
(§3) Paclitaxel (30 mg) formulated in a mixture of Cremophor and absolute:ethanol (1:1, vol/vol) (Bristol Myers Squibb, Munich, Germany) was diluted in 500 mL of 5% (weight/vol) dextrose in water and administered to subjects via a peripheral or central venous catheter using a motor-driven programmable infusion pump. Eligible subjects were randomized between a one hour and three hour infusion duration to receive a total of six weekly intravenous infusions of paclitaxel at a dose of 100 mg/m^2. After six weeks of therapy (defined as one cycle) response was evaluated bi-dimensionally, usually by computed tomography. Subjects with a stable disease, partial response or complete response after one cycle received a second cycle, provided toxic effects were not prohibitive.
All data are reported as median values with the associated 95% CI, unless specified otherwise.

[4] = tested on: subjects with locally advanced or metastatic cancer; assay: Cumulative peripheral neuropathy (clinical score >3) during weekly paclitaxel therapy by ABCB1 genotype; assay type: in vivo, human; conditions: weekly paclitaxel 100 mg/m^2, 12 weeks
Source text: Twenty-six subjects were examined.
Prior to therapy, and if possible after six and twelve weeks of therapy, these examinations were supplemented by the evaluation of the peripheral neuropathy score, clinical chemistries (serum creatinine, transaminases, alkaline phosphatase, and bilirubin), electrocardiogram analysis and performance status. For the assessment of neurotoxicity a standardized clinical peripheral neuropathy scoring system was used, which included questioning subjects' symptoms, requiring a clinical examination based on a tuning fork test, and an evaluation of strength and peripheral reflexes. This individual clinical score could range from 0 (best) to 12 (worst) points, and based on the inclusion criteria of this trial, peripheral neuropathy was defined as an event when the score exceeded a value of 3 for the first time. A score had to be obtained, at a minimum, prior to and after six and twelve weeks of therapy in order for subjects to be included.
The probability of development of a peripheral neuropathy during paclitaxel therapy as a function of time, according to various genotypes, was analyzed using the Kaplan-Meier method. Statistical significance of the differences between Kaplan-Meier curves was determined using an exact log rank test. […]

[5] = Paclitaxel pharmacokinetics in plasma of treated subjects by ABCB1 genotype; conditions: for AUCp, area under the curve of total paclitaxel, Median (95% CI) / AUCu, area under the curve of unbound paclitaxel, Median (95% CI) / T > 0.05 μM, duration of total plasma concentration of paclitaxel exceeding 0.05 μM, Median (95% CI): 100 mg/m^2 iv infusion, first administration
Protocol: as §2, §3
Blood samples were obtained from the subjects described in Example 1 during the first paclitaxel administration at baseline and at serial time points during and after infusion. Concentrations of total paclitaxel in plasma were determined by a validated method based on reversed-phase high performance liquid chromatography with ultraviolet detection, while unbound paclitaxel plasma concentrations were determined by micro-equilibrium dialysis using a [G-^3H]paclitaxel tracer. Pertinent pharmacokinetic parameters were calculated by non-compartmental methods using WinNonlin® version 5.0 (Pharsight, Mountain View, Calif., USA).
All data are reported as median values with the associated 95% CI, unless specified otherwise. Interindividual pharmacokinetic variability was assessed as the coefficient of variation, and expressed as a percentage. The associations of the variant genotypes with individual pharmacokinetic parameters were evaluated statistically with the nonparametric Kruskal-Wallis test. All P values are two-tailed, and those less than or equal to 0.05 were considered to reflect statistically significant results.

[6] = genotype 2677TT + 3435TT, 11 patients in total
[7] = other ABCB1 genotypes, 39 patients in total
[8] = of the 15 subjects wild-type for ABCB1 2677G>T/A
[9] = subjects carrying at least one variant allele at ABCB1 2677
[10] = ABCB1 1236C>T heterozygous (N=17)
[11] = ABCB1 1236C>T variant (N=4), range quoted instead of 95% CI
[12] = ABCB1 1236C>T wild-type (N=5), range quoted instead of 95% CI
[13] = ABCB1 2677G>T heterozygous (N=13)
[14] = ABCB1 2677G>T wild-type (N=2), range quoted instead of 95% CI
[15] = ABCB1 3435C>T heterozygous (N=14)
[16] = ABCB1 3435C>T wild-type (N=4), range quoted instead of 95% CI

# Patients with Clinical Grade of Neutropenia, Grade 0 [1, 6]: 8 patients
# Patients with Clinical Grade of Neutropenia, Grade 2 [1, 6]: 0 patients
# Patients with Clinical Grade of Neutropenia, Grade 3 [1, 6]: 3 patients
# Patients with Clinical Grade of Neutropenia, Grade 0 [1, 7]: 35 patients
# Patients with Clinical Grade of Neutropenia, Grade 2 [1, 7]: 3 patients
# Patients with Clinical Grade of Neutropenia, Grade 3 [1, 7]: 1 patients
subjects who developed peripheral neuropathy during the observation period [2, 8]: 11 subjects
subjects who did not develop peripheral neuropathy during the observation period [2, 8]: 4 subjects
subjects who developed peripheral neuropathy during the observation period [2, 9]: 32 of 35
subjects who did not develop peripheral neuropathy during the observation period [2, 9]: 3 of 35
SMILES: CC(=O)O[C@@]12CO[C@@H]1C[C@H](O)[C@@]1(C)C(=O)[C@H](O)C3=C(C)[C@@H](OC(=O)[C@H](O)[C@@H](NC(=O)OC(C)(C)C)c4ccccc4)C[C@@](O)([C@@H](OC(=O)c4ccccc4)[C@H]21)C3(C)C [docetaxel, (2R,3S)—N-carboxy-3-phenylisoserine,N-tert-butyl ester, 13-ester with 5β-20-epoxy-1,2α,4,7β,10β,13α-hexahydroxytax-11-en-9-one 4-acetate 2-benzoate, trihydrate]

fold greater percent decrease in neutrophil count at nadir, double variant versus rest of the population [3]: approximately 1.5 fold
development of peripheral neuropathy during the observation period ([4]; four subjects wild-type for ABCB1 3435C>T (3435CC)): did not develop peripheral neuropathy
subjects who developed peripheral neuropathy ([4]; subjects carrying at least one variant allele at ABCB1 3435 (CT or TT)): 17 of 18
AUCp, area under the curve of total paclitaxel, Median (95% CI) [5, 10]: 5264 (3879-6235) (ng/mL) × hr
AUCu, area under the curve of unbound paclitaxel, Median (95% CI) [5, 10]: 470 (445-519) (ng/mL) × hrs
T > 0.05 μM, duration of total plasma concentration of paclitaxel exceeding 0.05 μM, Median (95% CI) ([5]; ABCB1 1236C>T heterozygous (N=17, one patient without data)): 15.6 (9.3-19.3)* hours
AUCp, area under the curve of total paclitaxel, Median (95% CI) [5, 11]: 3547 (2309-5600) (ng/mL) × hr
AUCu, area under the curve of unbound paclitaxel, Median (95% CI) [5, 11]: 407 (362-522) (ng/mL) × hrs
T > 0.05 μM, duration of total plasma concentration of paclitaxel exceeding 0.05 μM, Median (95% CI) [5, 11]: 15.6 (8.8-24.9) hours
AUCp, area under the curve of total paclitaxel, Median (95% CI) [5, 12]: 4657 (2909-9916) (ng/mL) × hr
T > 0.05 μM, duration of total plasma concentration of paclitaxel exceeding 0.05 μM, Median (95% CI) [5, 12]: 20.3 (8.8-34.2) hours
AUCp, area under the curve of total paclitaxel, Median (95% CI) [5, 13]: 5146 (3776-7762) (ng/mL) × hr
AUCu, area under the curve of unbound paclitaxel, Median (95% CI) [5, 13]: 482 (371-641) (ng/mL) × hrs
T > 0.05 μM, duration of total plasma concentration of paclitaxel exceeding 0.05 μM, Median (95% CI) ([5]; ABCB1 2677G>T heterozygous (N=13, one patient without data)): 17.3 (9.6-20.7)* hours
AUCp, area under the curve of total paclitaxel, Median (95% CI) ([5]; ABCB1 2677G>T variant (N=11)): 4203 (2309-5600) (ng/mL) × hr
AUCu, area under the curve of unbound paclitaxel, Median (95% CI) ([5]; ABCB1 2677G>T variant (N=11)): 445 (362-516) (ng/mL) × hrs
T > 0.05 μM, duration of total plasma concentration of paclitaxel exceeding 0.05 μM, Median (95% CI) ([5]; ABCB1 2677G>T variant (N=11)): 12.6 (8.8-19.8) hours
AUCp, area under the curve of total paclitaxel, Median (95% CI) [5, 14]: 3348 (2909-3787) (ng/mL) × hr
AUCu, area under the curve of unbound paclitaxel, Median (95% CI) [5, 14]: 540 (507-572) (ng/mL) × hrs
T > 0.05 μM, duration of total plasma concentration of paclitaxel exceeding 0.05 μM, Median (95% CI) [5, 14]: 15.1 (8.8-21.3) hours
AUCp, area under the curve of total paclitaxel, Median (95% CI) [5, 15]: 5485 (3787-6344) (ng/mL) × hr
AUCu, area under the curve of unbound paclitaxel, Median (95% CI) [5, 15]: 512 (432-523) (ng/mL) × hrs
T > 0.05 μM, duration of total plasma concentration of paclitaxel exceeding 0.05 μM, Median (95% CI) ([5]; ABCB1 3435C>T heterozygous (N=14, one patient without data)): 19.8 (10.5-21.3)* hours
AUCp, area under the curve of total paclitaxel, Median (95% CI) ([5]; ABCB1 3435C>T variant (N=8)): 3656 (2259-5600) (ng/mL) × hr
AUCu, area under the curve of unbound paclitaxel, Median (95% CI) ([5]; ABCB1 3435C>T variant (N=8)): 448 (362-522) (ng/mL) × hrs
T > 0.05 μM, duration of total plasma concentration of paclitaxel exceeding 0.05 μM, Median (95% CI) ([5]; ABCB1 3435C>T variant (N=8)): 13.7 (8.7-18.9) hours
AUCp, area under the curve of total paclitaxel, Median (95% CI) [5, 16]: 4534 (2909-5146) (ng/mL) × hr
AUCu, area under the curve of unbound paclitaxel, Median (95% CI) [5, 16]: 420 (313-572) (ng/mL) × hrs
SMILES: CC(=O)O[C@H]1C(=O)[C@@]2(C)[C@H]([C@H](OC(=O)c3ccccc3)[C@]3(O)C[C@H](OC(=O)[C@H](O)[C@@H](NC(=O)c4ccccc4)c4ccccc4)C(C)=C1C3(C)C)[C@]1(OC(C)=O)CO[C@@H]1C[C@@H]2O [paclitaxel, 5β,20-Epoxy-1,2α,4,7β,10β,13α-hexahydroxytax-11-en-9-one 4,10-diacetate 2-benzoate 13-ester with (2R,3S)—N-benzoyl-3-phenylisoserine]
association of ABCB1 genotypes with paclitaxel pharmacokinetic parameters ([5]; 26 subjects, ABCB1 1236C>T, 2677G>T, 3435C>T, Kruskal-Wallis test): none of the studied ABCB1 genotypes were associated with interindividual differences
